Assays:
[1] = system: MCF7 and HCT-116 cells; test: Acridine orange staining and fluorescence imaging; assay type: cell-based, human; settings: 48 h
Excerpt: (§1) The control had intact nuclei, as depicted by the green fluorescence due to AO binding to dsDNA, in contrast to the apoptotic nuclei of 5c-treated cells depicted by orange fluorescence due to AO staining of ssDNA and RNA. This observation was supported by the protein expression of cleaved poly (ADP-ribose) polymerase (PARP), which represents the degree of apoptosis in cells, as shown in Figure 9B. […] Acridine orange (AO) staining can also be influenced by autophagosomal pH.

[2] = system: HEK 293; test: MTT cell proliferation assay, HEK 293; assay type: cell-based, human; settings: Homo sapiens, HEK293; MTT, 72 h; mean ± SD, triplicate; read-out: IC50 ± SD HEK 293
[3] = system: cleaved PARP; test: Western blot of cleaved PARP; assay type: cell-based, human; settings: MCF7 and HCT-116 cells, compared to untreated cells
Excerpt: as §1
(§2) On the basis of the results obtained from the cell proliferation assay, further experiments were conducted on MCF7 and HCT-116 cells treated with compound 5c. The cells were harvested, and 0.1 × 10^6 cells were seeded in a 12-well cell culture plate and allowed to adhere properly. The cells were then incubated with 0.1 μM and 1 μM concentrations of compound 5c for 24 h. Cells were pelleted in 1× PBS and lysed using ice-cold RIPA buffer. The protein concentration of the lysate was quantified using the Bradford assay and an equal concentration of sample proteins was run on 12% SDS-PAGE and transferred onto 0.45 μm PVDF membrane (Millipore (St. Louis, MO, USA), Immobilon IPVH00010). […]

[4] = molecular target: T1, HDAC8 (Homo sapiens, UniProt Q9BY41); test: HDAC enzyme activity assay (fluorogenic, Boc-Lys(trifluoroacetyl)-AMC), HDAC8; assay type: biochemical; settings: class I HDAC8; mean ± SD, triplicate
T1 construct: codon-optimized full-length HDAC8; made in house; host or cells: E. coli BL21(DE3), pET14b vector
T1 sequence (Q9BY41 1-377): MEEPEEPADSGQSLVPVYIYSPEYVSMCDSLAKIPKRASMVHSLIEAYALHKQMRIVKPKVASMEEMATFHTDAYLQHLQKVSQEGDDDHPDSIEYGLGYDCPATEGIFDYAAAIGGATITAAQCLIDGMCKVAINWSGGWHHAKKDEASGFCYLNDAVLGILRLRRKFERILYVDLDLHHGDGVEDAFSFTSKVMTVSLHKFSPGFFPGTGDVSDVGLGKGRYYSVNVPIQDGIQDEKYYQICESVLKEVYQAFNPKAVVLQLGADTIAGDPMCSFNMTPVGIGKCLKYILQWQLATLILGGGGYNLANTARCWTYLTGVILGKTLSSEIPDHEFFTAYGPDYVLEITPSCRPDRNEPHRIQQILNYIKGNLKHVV

[5] = system: acetyl-H3; test: Western blot of acetyl-H3 in MCF7 and HCT-116 cells; assay type: cell-based, human; settings: compared to untreated control
[6] = system: MCF7 cells; test: Cell-cycle analysis by flow cytometry; assay type: cell-based, human
Protocol: Cell-cycle distribution analysis was carried out further to evaluate the effect of 5c on HDAC inhibition, as HDCA inhibitors are mainly known to target genes regulating the cell cycle. The 5c-treated MCF7 cells were subjected to cell-cycle analysis by flow cytometry.
Cell-cycle analysis was carried out using a cell-cycle analysis kit (Sigma-Aldrich, MAK344) according to the protocol given by the manufacturer. MCF7 cells were treated with DMSO or 0.1 μM and 1 μM concentrations of compound 5c and incubated for 48 h. Cells were then trypsinized and pelleted down. The pellets were washed with 1× cell-cycle buffer and fixed in ice-cold 70% ethanol for 1 h at 4 °C. The fixated cells were treated with ribonuclease A (RNase A) and stained with PI at room temperature for 30 min. Analysis was carried out using FlowJo 10.7.2..

[7] = system: acetyl α-tubulin; test: Western blot of acetyl α-tubulin in MCF7 and HCT-116 cells; assay type: cell-based, human; settings: 24 h
Protocol: HDAC6 plays a crucial role in chromatin modulation and deacetylation of α-tubulin, contributing to the expression of oncogenes driving tumorigenesis. Over time, numerous studies have shown HDAC inhibitors (HDACi) as potential anticancer therapeutics. The HDAC6-inhibitory effect of compound 5c was evaluated by analyzing the protein level expression of acetyl α-tubulin in MCF7 and HCT-116 cells treated with 5c by Western blotting.
as §2

[8] = molecular target: T2, HDAC4 (Homo sapiens, UniProt P56524); test: HDAC enzyme activity assay (fluorogenic, Boc-Lys(trifluoroacetyl)-AMC), HDAC4; assay type: biochemical; settings: class IIa HDAC4; mean ± SD, triplicate
T2 construct: catalytic domain of HDAC4 (T648-T1057, full length: UniProt P56524); made in house; host or cells: E. coli BL21(DE3), pET14b vector
T2 sequence (P56524 648-1057): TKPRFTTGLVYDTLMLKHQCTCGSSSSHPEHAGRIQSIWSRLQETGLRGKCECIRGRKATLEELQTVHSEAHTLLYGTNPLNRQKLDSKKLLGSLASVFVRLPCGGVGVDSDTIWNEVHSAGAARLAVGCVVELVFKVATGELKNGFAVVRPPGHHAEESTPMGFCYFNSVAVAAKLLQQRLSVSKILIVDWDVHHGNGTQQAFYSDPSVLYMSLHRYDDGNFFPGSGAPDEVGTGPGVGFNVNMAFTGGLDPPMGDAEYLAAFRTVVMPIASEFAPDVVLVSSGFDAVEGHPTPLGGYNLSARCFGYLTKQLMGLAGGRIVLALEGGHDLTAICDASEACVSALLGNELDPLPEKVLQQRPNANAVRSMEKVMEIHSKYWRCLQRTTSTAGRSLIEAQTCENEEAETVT

[9] = system: HCT116; test: MTT cell proliferation assay, HCT116; assay type: cell-based, human; settings: Homo sapiens, HCT-116; MTT, 72 h; mean ± SD, triplicate; read-out: IC50 ± SD HCT116
[10] = system: MCF7 cells; test: Annexin V–FITC/PI apoptosis assay by flow cytometry; assay type: cell-based, human; settings: MCF7, 0.1 and 1 μM, 24 h
Protocol: The efficacy of compound 5c to induce apoptosis was determined by annexin V–FITC/PI assay using flow cytometry. MCF7 cells were treated with two different concentrations of 5c as indicated, and the percentages of cells in the apoptotic and necrotic stage were analyzed, as depicted in Figure 8.
The apoptosis assay was performed using an annexin V–FITC Apoptosis detection kit (Sigma-Aldrich, APOAF) according to the manufacturer’s instructions. Cells were harvested, and 0.1 × 10^6 cells were seeded in a six-well cell culture plate and allowed to adhere followed by treatment with DMSO as the control and compound 5c at 0.1 μM and 1 μM concentrations for 24 h. The cells were trypsinized, pelleted down, and resuspended in the 1× buffer provided. The cells were stained using annexin V–FITC/PI and analyzed immediately using flow cytometry. Further analysis and plotting of graphs were conducted using Flowjo 7.6 [53].

- IC50 [4]: 2.3 ± 0.5 µM
- IC50 [8]: 0.72 ± 0.21 µM
- IC50 [9]: 12.4 ± 1.41 µM
Compound: Cc1ccc(-n2c(SCc3ccc(C(=O)NO)cc3)nc3ccccc3c2=O)cc1 [Compound 5c, N-hydroxy-4-(((4-oxo-3-(p-tolyl)-3,4-dihydroquinazolin-2-yl)thio)methyl)benzamide]
- apoptosis by acridine orange staining [1]: evidential apoptosis
- IC50 [2]: 35.1 ± 18.7 µM
- protein expression of cleaved PARP [3]: significantly higher
- acetylation of H3 [5]: increase in acetylation of H3, but only at a higher concentration
- cell population in G2/M phase ([6]; MCF7, 0.1 μM, 48 h): significant increase
- cell population in the G1 and S phases ([6]; MCF7, 0.1 μM, 48 h): slight reduction
- effect on cells at 1 μM ([6]; MCF7, 1 μM): necrosis and cell death
- concentration at which heightened acetylation of α-tubulin starts [7]: 0.1 to 1 µM
- state of cells with increase in concentration [10]: late apoptosis and necrosis

From publication PMC10341573, “Design, Synthesis, and Biological Evaluation of Novel Quinazolin-4(3H)-One-Based Histone Deacetylase 6 (HDAC6) Inhibitors for Anticancer Activity” (International Journal of Molecular Sciences, 2023)
